Measurements taken from ChEMBL document CHEMBL1127965, “Synthesis of novel monocyclic squalestatin analogues as potential inhibitors of squalene synthase” (Bioorg Med Chem Lett, 1994).

Molecular target: T1, Squalene synthase (Rattus norvegicus, UniProt Q02769)
T1 sequence (Q02769 whole entry): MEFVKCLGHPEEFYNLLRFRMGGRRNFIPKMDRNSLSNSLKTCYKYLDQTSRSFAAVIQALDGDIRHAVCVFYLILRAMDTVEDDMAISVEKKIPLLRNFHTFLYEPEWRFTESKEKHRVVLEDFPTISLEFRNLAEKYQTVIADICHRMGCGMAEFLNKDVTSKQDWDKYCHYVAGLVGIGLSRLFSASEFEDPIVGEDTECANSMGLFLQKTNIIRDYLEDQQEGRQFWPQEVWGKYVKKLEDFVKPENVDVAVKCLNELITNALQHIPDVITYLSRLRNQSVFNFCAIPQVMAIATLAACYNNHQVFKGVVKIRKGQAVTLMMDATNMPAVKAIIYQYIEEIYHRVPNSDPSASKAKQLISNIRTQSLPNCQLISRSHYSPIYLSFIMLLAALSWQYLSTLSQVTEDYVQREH
Assay: In vitro inhibitory activity against rat liver squalene synthase

Structure (SMILES) | IC50
O=C(O)C1OC(CCCCCCc2ccccc2)OC(C(=O)O)C1(O)C(=O)O (configuration not stated) | 8 µM
C=C(CCC12CCC(C(=O)O)(O1)C(O)(C(=O)O)C(C(=O)O)O2)[C@@H](OC(C)=O)[C@H](C)Cc1ccccc1 (some centres not stated) | 0.057 µM
